{"source": "patent US20250313635A1", "about": "“ANTI-INTEGRIN ANTIBODIES AND USES THEREOF” (Merck Sharp & Dohme LLC, priority 2022, published 2025)", "key": {"[1]": {"test_system": "Normal human lung fibroblasts", "experiment": "αSMA imaging, TGFβ-induced αSMA expression", "assay_type": "cell-based", "settings": "TGFβ 5 ng/mL, pre-treated 30 minutes, MK-0429 (10 µM) or SB-525334 (10 μM), 48 hours", "procedure": "αSMA imaging. Primary cells (passage 3-5) were grown on Cell carrier Ultra, collagen Type 1 coated 96-well plates (Perkin Elmer, #6055700) at a density of 25,000 cells/well. Once the cells adhere, they were starved in serum free media for 24 hours followed by addition of treatments, i.e., 5 ng/mL TGFβ (Biolegend #580702)±inhibitors. Cells were pre-treated with inhibitors for 30 minutes prior to the addition of TGFβ stimulation. 48 hours post treatment, the cells were fixed in 4% methanol free paraformaldehyde (ThermoFisher Scientific #28908) for 20 minutes at room temperature and incubated with anti-alpha smooth muscle Actin antibody (Abcam #ab7817) at 1:4000 overnight at 4° C. Following primary antibody incubation, cells were incubated with Goat anti-mouse secondary antibody (ThermoFisher Scientific #A32723) at 1:500 and Hoechst (ThermoFisher Scientific #62249) at 1:1000 for one hour at RT. The fixed and stained cells were images for immunofluorescence on Perkin Elmer's Opera Phenix high content Imager."}, "[2]": {"test_system": "bleomycin-induced lung fibrosis mouse model", "experiment": "Mouse bleomycin lung fibrosis model", "assay_type": "in vivo", "settings": "MK-0429 200 mpk osmotic minipump, Nintedanib 60 mpk po qd", "procedure": "Mouse bleomycin lungfibrosis models. Adult male C57BL/6 mice (Taconic, Rensselaer, NY) were housed in a temperature and humidity-controlled facility with a 12-hour light: 12-hour dark cycle. Animals had ad libitum access to food (Purina Rodent Chow 5053, LabDiet, St. Louis, MO) and water. All procedures utilizing experimental animals were conducted in accordance with the Guide for the Care and Use of Laboratory Animals, and experimental procedures were reviewed and approved by the Institutional Animal Care and Use Committee at MRL, Kenilworth, NJ.\nFor osmotic minipump implantation, trifluoroacetate (TFA) salt of MK-0429 was formulated in 50% dimethylsulfoxide (DMSO)/50% H2O at a concentration of 416 mg/mL. MK-0429 or vehicle solution were filled in minipumps (Alzet, #1007D, flow rate 0.5 μL/hour). Minipumps were placed in mice subcutaneously in a pocket on the back between the shoulder blades. A small incision was made and a subcutaneous pocket formed by blunt dissection. A sterile minipump was inserted into the subcutaneous pocket. The incision was closed with staples or non-absorbable suture or absorbable (subcuticular) suture. The minipumps were used for continuous drug delivery for two weeks.\nMice at 12˜13 weeks of age were randomized to five groups: saline, bleomycin instillation with vehicle (osmotic minipump), bleomycin instillation with MK-0429 treatment, bleomycin instillation with vehicle oral treatment, and bleomycin instillation with Nintedanib treatment. All mice were anaesthetized with isoflurane. Bleomycin was dosed by intratracheal (i.t) instillation in a volume of 50 μL, at a dose of 1 unit/kg body weight. After instillation, mice were kept in a heads-up position for 2-5 minutes before putting into cages. MK-0429 (200 mg/kg) was administered by Osmotic pump from day 5 to day 14 and Nintedanib (60 mg/kg) was administered, p.o., q.d., for 14 days. Vehicle was dosed orally at 10 am daily from the day 5 to the end of the studies and dosing volume was 10 mL/kg. For plasma PK analysis, an aliquot of 50 μL plasma was spiked into a 96-well plate, and 200 μL of acetonitrile containing internal standard were added for protein precipitation. The mixture was vortexed, centrifuged at 4000 rpm for 20 minutes. Then 50 μL of supernatant fraction was mixed with 200 μL H2O and the final solution were injected for LC-MS/MS analysis. The methods for quantitative analysis were developed on UPLC (Waters) chromatographic system equipped with an API4000 QTrap™ mass spectrometer (Applied Biosystems, Concord, Ontario, Canada). Analyst 1.5 software packages (Applied Biosystems) were used to control the LC-MS/MS system and data acquisition and processing.\nHistopathology analysis. Upon completion of the study, animals were euthanized and tissues were collected for histological assessment. Lung tissues were perfused with 10% formalin, fixed for 24 hours, and then paraffin embedded. Tissue sections were stained with hematoxylin & eosin (H&E) and Masson's trichrome, subsequently evaluated under light microscope. The severity of histopathologic changes and fibrosis in the lung were graded as described previously by pathologists (Ashcroft et al., J. Clin. Pathol. 41, 467-470 (1988); Hubner et al., Biotechniques 44(507-511), 514-607 (2008)). Following deparaffinization and rehydration, each lung tissue section was processed to identify αSMA deposition by immunohistochemistry. The primary antibodies used were αSMA antibody from Sigma. The Aperio ScanScope™ XT Slide Scanner (Aperio Technologies) system was used to capture whole slide digital images with a 20×objective. Digital images were managed using Aperio Spectrum™. The positive stains were identified and quantified using a macro created from a color deconvolution algorithm (Aperio Technologies). Statistical analysis was performed by using One-way ANOVA followed by Tukey's test."}, "hα5β1": {"target": "T1, hα5β1 (Homo sapiens, UniProt P05556+P08648)", "T1 construct": "The full extracellular domains for all α and β integrin subunits; (GGGS)3 linker (C); acidic coiled-coil with cysteine (C); GG-Avitag (C); hexa-histidine tag (C); basic coiled-coil with cysteine (C); made in house; host or cells: Expi293 cells", "T1 sequence (P08648 42-995 limits assumed)": "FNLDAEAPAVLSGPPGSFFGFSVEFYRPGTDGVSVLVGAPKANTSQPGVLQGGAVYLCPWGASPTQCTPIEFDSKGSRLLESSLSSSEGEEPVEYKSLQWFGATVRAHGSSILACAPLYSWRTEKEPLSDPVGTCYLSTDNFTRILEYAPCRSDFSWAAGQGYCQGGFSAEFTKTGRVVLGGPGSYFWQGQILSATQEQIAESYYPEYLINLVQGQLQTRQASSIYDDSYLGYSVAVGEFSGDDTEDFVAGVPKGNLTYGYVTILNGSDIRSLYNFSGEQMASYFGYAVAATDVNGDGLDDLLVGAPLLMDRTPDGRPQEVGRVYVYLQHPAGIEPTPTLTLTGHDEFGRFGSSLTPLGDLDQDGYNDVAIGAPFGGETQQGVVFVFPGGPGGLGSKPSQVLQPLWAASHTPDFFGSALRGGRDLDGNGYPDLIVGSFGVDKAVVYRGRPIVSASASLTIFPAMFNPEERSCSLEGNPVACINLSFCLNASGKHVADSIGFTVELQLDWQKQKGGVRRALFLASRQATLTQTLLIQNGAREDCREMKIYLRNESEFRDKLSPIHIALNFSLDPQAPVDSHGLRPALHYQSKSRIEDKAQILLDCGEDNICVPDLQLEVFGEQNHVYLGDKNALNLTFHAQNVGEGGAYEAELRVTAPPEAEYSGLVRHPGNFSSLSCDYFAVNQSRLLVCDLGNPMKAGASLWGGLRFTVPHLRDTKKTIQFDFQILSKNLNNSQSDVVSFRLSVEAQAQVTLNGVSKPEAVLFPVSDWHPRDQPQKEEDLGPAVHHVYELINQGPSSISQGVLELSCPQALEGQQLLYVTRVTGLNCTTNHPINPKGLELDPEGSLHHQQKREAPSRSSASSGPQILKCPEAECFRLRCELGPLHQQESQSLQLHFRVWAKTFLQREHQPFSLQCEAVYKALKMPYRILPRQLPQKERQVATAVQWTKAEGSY", "T1 sequence (P05556 21-728 limits assumed)": "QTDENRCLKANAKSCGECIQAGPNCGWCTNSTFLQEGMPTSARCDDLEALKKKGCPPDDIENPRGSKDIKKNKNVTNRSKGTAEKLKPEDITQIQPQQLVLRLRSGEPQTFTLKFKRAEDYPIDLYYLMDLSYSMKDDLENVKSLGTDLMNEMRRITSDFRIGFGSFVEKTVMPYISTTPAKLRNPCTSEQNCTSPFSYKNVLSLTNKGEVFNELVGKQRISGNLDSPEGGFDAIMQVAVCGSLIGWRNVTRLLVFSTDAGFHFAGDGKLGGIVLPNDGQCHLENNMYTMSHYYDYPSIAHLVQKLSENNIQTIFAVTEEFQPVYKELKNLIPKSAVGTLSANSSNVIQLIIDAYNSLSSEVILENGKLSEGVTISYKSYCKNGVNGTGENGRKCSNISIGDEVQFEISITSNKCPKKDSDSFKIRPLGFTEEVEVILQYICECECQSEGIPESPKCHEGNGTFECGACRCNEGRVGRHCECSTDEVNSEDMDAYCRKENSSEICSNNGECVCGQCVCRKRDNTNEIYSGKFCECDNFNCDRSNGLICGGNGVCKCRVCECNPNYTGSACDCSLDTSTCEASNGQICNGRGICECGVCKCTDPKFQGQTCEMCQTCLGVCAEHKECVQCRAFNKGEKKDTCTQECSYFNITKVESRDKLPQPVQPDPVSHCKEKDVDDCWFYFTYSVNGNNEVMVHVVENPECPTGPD", "experiment": "Human AlphaLISA integrin-ligand blocking assay (fibronectin)", "assay_type": "biochemical", "procedure": "(§1) Integrin AlphaLISA assay. In the AlphaLISA integrin assays, we used a HEPES based buffer (25 mM HEPES pH 7.4, 137 mM NaCl, 1 mM MgCl2, 1 mM MnCl2, 2 mM CaCl2, 2.7 mM KCl, and 0.05% Tween 20). Optimal assay conditions were determined with a titration of the reagents for signal noise ratio (S/N), linear range, etc. For the respective integrins, we used the final concentrations described in Table 9.\n(§2) Briefly, the testing antibody (8 μL) was added as a 4×(of Final testing concentration) solution in the HEPES buffer described previously into a 384w AlphaPlate™ (Perkin Elmer #6005350). Then the integrin and ligand were added sequentially as 8×(4 μL each). Plates were sealed and incubated at room temperature for two hours. Then 4×acceptor bead solution ([…]) was added, and the plates were resealed and incubated at room temperature (RT) for one hour. Finally, 4×([…]) donor beads solution was added in a darkened room and incubated for 45 minutes at room temperature. Plates were read on the Envision (Perkin Elmer) in AlphaScreen™ mode within three hours of donor bead addition."}, "hαvβ1": {"target": "T2, hαvβ1 (Homo sapiens, UniProt P05556+P06756)", "T2 construct": "The full extracellular domains for all α and β integrin subunits; (GGGS)3 linker (C); acidic coiled-coil with cysteine (C); GG-Avitag (C); hexa-histidine tag (C); basic coiled-coil with cysteine (C); made in house; host or cells: Expi293 cells", "T2 sequence (P06756 31-992 limits assumed)": "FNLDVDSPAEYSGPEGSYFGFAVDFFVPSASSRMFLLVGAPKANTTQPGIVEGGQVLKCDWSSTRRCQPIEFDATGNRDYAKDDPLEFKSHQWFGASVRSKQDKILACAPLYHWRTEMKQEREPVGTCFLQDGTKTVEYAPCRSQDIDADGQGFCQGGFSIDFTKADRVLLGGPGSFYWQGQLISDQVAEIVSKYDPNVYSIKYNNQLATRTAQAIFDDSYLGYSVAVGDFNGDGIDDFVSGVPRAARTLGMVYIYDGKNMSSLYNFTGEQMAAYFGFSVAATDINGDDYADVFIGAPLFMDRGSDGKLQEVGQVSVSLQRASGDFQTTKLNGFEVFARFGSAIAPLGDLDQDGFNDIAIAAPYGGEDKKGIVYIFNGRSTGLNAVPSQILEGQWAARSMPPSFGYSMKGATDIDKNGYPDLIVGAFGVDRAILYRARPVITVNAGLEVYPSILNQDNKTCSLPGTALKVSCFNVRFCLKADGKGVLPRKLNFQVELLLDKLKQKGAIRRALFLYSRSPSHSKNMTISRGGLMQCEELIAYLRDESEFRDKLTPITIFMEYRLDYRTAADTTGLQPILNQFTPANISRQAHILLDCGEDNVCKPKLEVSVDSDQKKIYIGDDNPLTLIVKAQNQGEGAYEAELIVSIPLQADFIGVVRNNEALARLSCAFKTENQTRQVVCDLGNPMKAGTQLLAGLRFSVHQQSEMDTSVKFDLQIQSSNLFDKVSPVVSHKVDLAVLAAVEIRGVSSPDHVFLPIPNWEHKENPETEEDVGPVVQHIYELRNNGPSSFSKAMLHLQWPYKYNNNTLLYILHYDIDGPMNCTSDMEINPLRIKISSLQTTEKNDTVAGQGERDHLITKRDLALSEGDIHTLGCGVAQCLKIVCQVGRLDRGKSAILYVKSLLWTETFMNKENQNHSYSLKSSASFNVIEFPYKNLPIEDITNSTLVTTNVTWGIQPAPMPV", "T2 sequence (P05556 21-728 limits assumed)": "as the sequence (P05556 21-728 limits assumed) above", "experiment": "Human AlphaLISA integrin-ligand blocking assay (fibronectin)", "assay_type": "biochemical", "procedure": "as §1, §2"}, "[3]": {"settings": "14 days treatment, vs BLM-vehicle"}}, "note": "Read-outs that look alike come from different tables or passages of the source.", "data": [{"molecule": "COc1ccc([C@H](CC(=O)O)N2CCN(CCCc3ccc4c(n3)NCCC4)C2=O)cn1", "note": "[MK-0429, (3S)-3-(6-methoxypyridin-3-yl)-3-[2-oxo-3-[3-(5,6,7,8-tetrahydro-1,8-naphthyridin-2-yl)propyl]imidazolidin-1-yl]propanoic acid]", "values": [{"measurement": "αSMA intensity and the percentage of stimulated cells following TGFβ treatment", "setting": "[1]", "result": "significantly reduced"}, {"measurement": "body weight difference vs bleomycin group", "setting": "[2]", "result": "no significant body weight difference"}, {"measurement": "BALF TIMP-1 content", "setting": "[2]; [3]", "result": "did not reach statistical significance"}, {"measurement": "bleomycin-induced αSMA expression (IHC)", "setting": "[2]; [3]", "result": "significantly decreased"}, {"measurement": "inflammation in the lung", "setting": "[2]; [3]", "result": "nonstatistical significant decrease"}, {"measurement": "modified Ashcroft score", "setting": "[2]; [3]", "result": "significantly decreased"}, {"measurement": "IC50", "setting": "hα5β1; FIG. 3D, curve-fitted, read-out: IC50 against human αvβ1 (as printed, sixth integrin listed), AlphaLISA", "result": 17.3, "unit": "nM"}, {"measurement": "IC50", "setting": "hα5β1; Table 11, read-out: IC50 Human integrin AlphaLISA assays hα5β1", "result": 26.5, "unit": "nM"}, {"measurement": "IC50", "setting": "hαvβ1; FIG. 3D, curve-fitted, read-out: IC50 against human αvβ1, AlphaLISA", "result": 0.46, "unit": "nM"}, {"measurement": "IC50", "setting": "hαvβ1; Table 11, read-out: IC50 Human integrin AlphaLISA assays hαvβ1", "result": 1, "unit": "nM"}]}]}
